The values that follow come from US4626535A, “Cephalosporins” (Bayer Aktiengesellschaft, priority 1983, dated 1986).

Experiment in all cases: in vitro MIC comparison in Isosensitest agar
Format in all cases: cell-based

The test system of one assay is Staph. 25470. The note with it: Staphylococcus. An excerpt: (§1) The compound of Example 21 was compared in vitro with Cefotaxim (MIC-comparison in Isosensitest agar): […]
The test system of another assay is Psdm. Walter. The note with it: Pseudomonas.
Description: as §1

The subject of assay [1] is Enterobacter Cloacae 56US. The following applies: CLOACAE56US.
Description: as §1

In a further assay the test system is Staph. 133. The note with it: Staphylococcus.
Description: as §1

For the next assay, the system named is Psdm. 7035. The note with it: Pseudomonas.
Description: as §1

Another assay deals with Staph. 1756. The following applies: Staphylococcus.
Description: as §1

Another assay relates to Staph. E. The note with it: Staphylococcus.
Description: as §1

The MIC is the smallest concentration in the dilution series that meets the test's criterion for growth inhibition.

Each structure is given as a SMILES string. ≈ marks a conversion by molar mass, not a printed value.

For the molecule `CO/N=C(\C(=O)N[C@@H]1C(=O)N2C(C(=O)O)=C(COC(C)=O)CS[C@H]12)c1csc(N)n1` [Cefotaxim], the MIC with Staph. 25470 is more than 128 µg/mL; with Psdm. Walter it was 16 µg/mL (≈ 35.1 µM); in assay [1], more than 128 µg/mL; against Staph. 133, 1 µg/mL (≈ 2.2 µM); with Psdm. 7035 it was 16 µg/mL (≈ 35.1 µM); with Staph. 1756, 128 µg/mL (≈ 281 µM). Also, it took 0.5 µg/mL (≈ 1.1 µM) to inhibit growth in the assay on Staph. E (MIC).

As to `C/C=C(\C(=O)NC1C(=O)N2C(C(=O)[O-])=C(C[n+]3ccccc3)CSC12)c1nsc(N)n1` (centres unmarked) [Example 21, 7-(1-(5-Amino-1,2,4-thiadiazol-3-yl)-1(Z)-propenecarboxamido)-3-pyridiniummethyl-3-cephem-4-carboxylate], the MIC in the assay with Staph. 25470 was 8 µg/mL (≈ 17.4 µM); against Psdm. Walter it was 8 to 16 µg/mL (≈ 17.4 to 34.9 µM); in assay [1], 64 µg/mL (≈ 140 µM); against Staph. 133, 0.5 µg/mL (≈ 1.09 µM); in the assay on Psdm. 7035, 8 µg/mL (≈ 17.4 µM); in the assay on Staph. 1756, 8 µg/mL (≈ 17.4 µM). The molecule further registered an MIC in the assay with Staph. E of 0.125 µg/mL (≈ 0.273 µM).
